This note sets out measurements from patent US9028845B2, “Chimeric immunomodulatory compounds and methods of using the same-IV” (Dynavax Technologies Corporation, priority 2001, dated 2015).

“Also recorded” adds a separate entry of the source. No end group written: not given here.

The assay relates to human PBMCs. The assay is described as follows: Human PBMC cytokine response assay (IFN-γ and IFN-α in cell-free medium by ELISA), with or without cPLGA.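 For IFN-α (pg/ml) mean: 20 µg/mL compound for 24 hours.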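 For IFN-γ (pg/ml) mean: 20 µg/mL compound for 24 hours.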 The class given is cell-based. The settings on record: for IFN-γ induction, in words / IFN-α induction, in words: used alone; for immunomodulatory activity (IFN-γ / IFN-α secretion), in words: used alone (no cPLGA).
The mark [1] stands for this setting: Table 24, mean of donors 28234-28237.
Where [2] appears, read: Table 25, donor 28250, polynucleotides/spacers at amounts equivalent to the CIC, spacers alone 9 uM.
[3] abbreviates: Table 25, mean of donors 28250-28253.
Setting [4] is: mean of donors 110, 112, 119, 120, Table 14.
The mark [5] stands for this setting: Table 26, mean of donors 28313-28316.
The mark [6] stands for this setting: donor 28066, 20 ug/ml, 24 h, + PLGA = premixed with 100 μg/ml cPLGA.
Where [7] appears, read: donor 28067, 20 ug/ml, 24 h, + PLGA = premixed with 100 μg/ml cPLGA.
[8] abbreviates: donor 28068, 20 ug/ml, 24 h, + PLGA = premixed with 100 μg/ml cPLGA.
[9] abbreviates: mean of Donors 3-4, 20 μg/ml, 24 h.
Where [10] appears, read: mean of Donors 9-12, 20 μg/ml, 24 h.
Setting [11] is: mean of donors 28065-28068, 20 ug/ml, 24 h, + PLGA = premixed with 100 μg/ml cPLGA.

With “5′-TCGTCGA-3′-C3-5′-TCGTCGA-3′-C3-5′-TCGTCGA-3′ [Compound C-90]”, the “IFN-γ induction, in words” value was “similar”. Moreover, under “Table 24, donor 28234”, the IFN-α was 16 pg/mL and the IFN-γ is 7 pg/mL. Where the note is “Table 24, donor 28235”, the IFN-α came out at 46 pg/mL and the IFN-γ stood at 118 pg/mL. Where the note is “Table 24, donor 28236”, this substance yielded an IFN-α of 117 pg/mL and an IFN-γ of 497 pg/mL. For the setting “Table 24, donor 28237”, this substance returned an IFN-α of 345 pg/mL and an IFN-γ of 1586 pg/mL. Under setting [1], this substance yielded an IFN-α mean of 131 pg/mL and an IFN-γ mean of 552 pg/mL.
Consider “5′-TCGACGT-3′-HEG-5′-TCGACGT-3′-HEG-5′-TCGACGT-3′ [Compound C-51]”, for which the “IFN-α induction, in words” value is “generated more IFN-α than CICs containing a 5′-TCGT-3′”; the “IFN-γ induction, in words” value is “similar”; the “immunomodulatory activity (IFN-γ / IFN-α secretion), in words” value is “more active than other CG-containing CICs”. The “IFN-α induced relative to C-90 (C3 CIC)” value (HEG CIC vs C3 CIC) amounted to 8 fold. For the setting “Table 10, donor 28042”, this substance returned an IFN-α of 112 pg/mL and an IFN-γ of 795 pg/mL. Where the note is “Table 10, donor 28043”, this substance registered an IFN-α of 245 pg/mL and an IFN-γ of 1349 pg/mL. Further, under “Table 10, donor 28044”, the IFN-α stood at 240 pg/mL and the IFN-γ is 1114 pg/mL. For the setting “Table 10, donor 28045”, this substance yielded an IFN-α of 36 pg/mL and an IFN-γ of 411 pg/mL. For the setting “Table 10, mean of donors”, this substance displayed an IFN-α mean of 158 pg/mL and an IFN-γ mean of 917 pg/mL. For the setting “Table 24, donor 28234”, the IFN-α was determined as 16 pg/mL and the IFN-γ was 17 pg/mL. For the setting “Table 24, donor 28235”, this substance had an IFN-α of 77 pg/mL and an IFN-γ of 123 pg/mL. For the setting “Table 24, donor 28236”, this substance came in with an IFN-α of 352 pg/mL and an IFN-γ of 193 pg/mL. In addition, under “Table 24, donor 28237”, the IFN-α came to 3798 pg/mL and the IFN-γ worked out at 1580 pg/mL. Moreover, under setting [1], the IFN-α mean amounted to 1061 pg/mL and the IFN-γ mean came to 478 pg/mL. The same substance displayed an IFN-a (Table 25, donor 28250) of 181 pg/mL. For the same substance, the IFN-g under setting [2] was found to be 135 pg/mL. Moreover, where the note is “Table 25, donor 28251”, the IFN-a came to 246 pg/mL and the IFN-g stood at 45 pg/mL. For the same substance, under “Table 25, donor 28252”, the IFN-a is 95 pg/mL and the IFN-g came out at 164 pg/mL. Where the note is “Table 25, donor 28253”, this substance returned an IFN-a of 1226 pg/mL and an IFN-g of 167 pg/mL. For the same substance, under setting [3], the IFN-a mean was 437 pg/mL and the IFN-g mean was determined as 128 pg/mL. Besides, for the setting “donor 110, Table 14”, the “IFN-α” value came out at 1408 pg/mL and the “IFN-γ” value came to 1528 pg/mL. Where the note is “donor 112, Table 14”, the “IFN-α” value was determined as 72 pg/mL and the “IFN-γ” value stood at 240 pg/mL. Besides, under “donor 119, Table 14”, the “IFN-α” value came to 2200 pg/mL and the “IFN-γ” value came to 52 pg/mL. Besides, where the note is “donor 120, Table 14”, the “IFN-α” value amounted to 622 pg/mL and the “IFN-γ” value amounted to 40 pg/mL. In addition, under setting [4], the “IFN-α (pg/ml) mean” value was determined as 1076 pg/mL and the “IFN-γ (pg/ml) mean” value amounted to 465 pg/mL.
“5′-TCGTCGA-3′-C3-5′-TCGTCGA-3′-C3-5′-TCGTCGA-3′ all phosphorothioate linkages [Compound C-33]”: the IFN-α is, setting by setting: (Table 9, donor 28089) 56 pg/mL; (Table 9, donor 28090) 22 pg/mL; (Table 9, donor 28098) 34 pg/mL; (Table 9, donor 28099) 30 pg/mL; (Table 24, donor 28234) 16 pg/mL; (Table 24, donor 28235) 16 pg/mL. For the same substance, the IFN-α turned out to be 16 pg/mL (Table 24, donor 28236) and 91 pg/mL (Table 24, donor 28237). The IFN-γ was determined as 0 pg/mL (Table 9, donor 28089); 0 pg/mL (Table 9, donor 28090); 0 pg/mL (Table 9, donor 28098); 3 pg/mL (Table 9, donor 28099); 23 pg/mL (Table 24, donor 28234); 86 pg/mL (Table 24, donor 28235). Moreover, the IFN-γ (Table 24, donor 28236) was determined as 247 pg/mL and the IFN-γ (Table 24, donor 28237) was determined as 2076 pg/mL. The IFN-α mean came out at 36 pg/mL (Table 9, mean of donors) and 35 pg/mL under setting [1]. Besides, the IFN-γ mean by setting is: (Table 9, mean of donors) 1 pg/mL; under setting [1], 608 pg/mL.
Consider “(5′-TCGTCGA-3′-HEG)2-glycerol-HEG-5′-AACGTTC-3′-HEG-5′-TCGACGT-3′ [Compound C-100]”, for which the IFN-α runs as follows: (Table 24, donor 28234) 16 pg/mL; (Table 24, donor 28235) 16 pg/mL; (Table 24, donor 28236) 398 pg/mL; (Table 24, donor 28237) 193 pg/mL. For the same substance, the IFN-γ is, setting by setting: (Table 24, donor 28234) 27 pg/mL; (Table 24, donor 28235) 183 pg/mL; (Table 24, donor 28236) 490 pg/mL; (Table 24, donor 28237) 1907 pg/mL. Moreover, the IFN-α mean under setting [1] came out at 156 pg/mL. The IFN-γ mean under setting [1] came out at 652 pg/mL.
On to “(5′-TCGACGT-3′-HEG)x-Ficoll400 (X range = 150-250, ave. 185) See example 49 (not fully specified (C-terminus); cysteine pairing not given here; also: about 185 copies attached to Ficoll400) [Compound C-137]”, for which the “IFN-α induction, in words” value is “significant stimulation of IFN-α” and the “immunomodulatory activity (IFN-γ / IFN-α secretion), in words” value is given as “striking activity in the cytokine response assays”. For the setting “Table 26, donor 28313”, this substance registered an IFN-a of 3612 pg/mL and an IFN-g of 1 pg/mL. Where the note is “Table 26, donor 28314”, this substance had an IFN-a of 5468 pg/mL and an IFN-g of 22 pg/mL. Besides, under “Table 26, donor 28315”, the IFN-a worked out at 624 pg/mL and the IFN-g came to 13 pg/mL. Moreover, for the setting “Table 26, donor 28316”, the IFN-a worked out at 4000 pg/mL and the IFN-g was found to be 54 pg/mL. Besides, the “IFN-g mean ×4” value (Table 26, mean multiplied by 4) was found to be 90 pg/mL. Moreover, under setting [5], the IFN-a mean is 3426 pg/mL and the IFN-g mean worked out at 22 pg/mL.
For “5′-TGACTGTGA-3′-HEG-5′-ACGTTCG-3′-HEG-5′-AGATGAT-3′ [Compound C-53]”, the IFN-α reads like this: (Table 11, donor 28042) 0 pg/mL; (Table 11, donor 28043) 0 pg/mL; (Table 11, donor 28044) 0 pg/mL; (Table 11, donor 28045) 5 pg/mL. The IFN-γ was determined as 39 pg/mL (Table 11, donor 28042); 27 pg/mL (Table 11, donor 28043); 38 pg/mL (Table 11, donor 28044); 26 pg/mL (Table 11, donor 28045). In addition, the IFN-α mean (Table 11, mean of donors) stood at 1 pg/mL. The substance also had an IFN-γ mean (Table 11, mean of donors) of 32 pg/mL.
As for “5′-TCGTCG-3′ [Compound P-2, reference compound]”, the “immunomodulatory activity (IFN-γ / IFN-α secretion), in words” value is listed as “did not have immunomodulatory activity; also recorded: had no activity”. For the same substance, where the note is “Donor 3, 20 μg/ml, 24 h”, the “IFN-α (pg/ml) Donor 3” value stood at 0 pg/mL and the “IFN-γ (pg/ml) Donor 3” value came out at 0 pg/mL. In addition, for the setting “Donor 4, 20 μg/ml, 24 h”, the “IFN-α (pg/ml) Donor 4” value was 40 pg/mL and the “IFN-γ (pg/ml) Donor 4” value amounted to 4 pg/mL. In addition, for the setting “Donor 9, 20 μg/ml, 24 h”, the “IFN-α Donor 9” value was determined as 0 and the “IFN-γ Donor 9” value was 2. Besides, for the setting “Donor 10, 20 μg/ml, 24 h”, the “IFN-α Donor 10” value is 2 and the “IFN-γ Donor 10” value was found to be 3. In addition, where the note is “Donor 11, 20 μg/ml, 24 h”, the “IFN-α Donor 11” value came to 1 and the “IFN-γ Donor 11” value stood at 1. Further, for the setting “Donor 12, 20 μg/ml, 24 h”, the “IFN-α Donor 12” value came to 4 and the “IFN-γ Donor 12” value stood at 2. The IFN-a (Table 25, donor 28250) worked out at 16 pg/mL. Further, under setting [2], the IFN-g worked out at 7 pg/mL. Moreover, for the setting “Table 25, donor 28251”, the IFN-a is 16 pg/mL and the IFN-g is 25 pg/mL. Also, where the note is “Table 25, donor 28252”, the IFN-a amounted to 25 pg/mL and the IFN-g was determined as 53 pg/mL. For the setting “Table 25, donor 28253”, this substance showed an IFN-a of 16 pg/mL and an IFN-g of 1 pg/mL. Under setting [3], this substance displayed an IFN-a mean of 18 pg/mL and an IFN-g mean of 22 pg/mL. Further, the “IFN-γ (pg/ml) 28065” value (donor 28065 (high background), 20 ug/ml, 24 h, + PLGA = premixed with 100 μg/ml cPLGA, 1000 = outside assay limits) amounted to 79 pg/mL. Moreover, the “IFN-α (pg/ml) 28065” value (donor 28065, 20 ug/ml, 24 h, + PLGA = premixed with 100 μg/ml cPLGA) is 0 pg/mL. Under setting [6], the “IFN-α (pg/ml) 28066” value was determined as 3 pg/mL and the “IFN-γ (pg/ml) 28066” value came to 1 pg/mL. Under setting [7], the “IFN-α (pg/ml) 28067” value was 0 pg/mL and the “IFN-γ (pg/ml) 28067” value came to 1 pg/mL. Besides, under setting [8], the “IFN-α (pg/ml) 28068” value worked out at 0 pg/mL and the “IFN-γ (pg/ml) 28068” value is 0 pg/mL. Under setting [9], the “IFN-α (pg/ml) mean” value came out at 20 pg/mL and the “IFN-γ (pg/ml) mean” value worked out at 2 pg/mL. For the same substance, under setting [10], the IFN-α mean is on record as 2 and the IFN-γ mean is on record as 2. Under setting [11], the “IFN-α (pg/ml) mean” value is 1 pg/mL and the “IFN-γ (pg/ml) mean” value is 20 pg/mL.
For “5′-TCGTCGA-3′-HEG-5′-ACGTTCG-3′-HEG-5′-GGGGGG-3′ [Compound C-49]”, the IFN-α (Table 11, donor 28042) was 30 pg/mL; the IFN-α (Table 11, donor 28043) was 8 pg/mL; the IFN-α (Table 11, donor 28044) was found to be 100 pg/mL; the IFN-α (Table 11, donor 28045) was found to be 88 pg/mL. Also, the IFN-γ (Table 11, donor 28042) stood at 367 pg/mL; the IFN-γ (Table 11, donor 28043) came to 433 pg/mL; the IFN-γ (Table 11, donor 28044) is 767 pg/mL; the IFN-γ (Table 11, donor 28045) was 353 pg/mL. The substance also gave an IFN-α mean (Table 11, mean of donors) of 57 pg/mL. This substance returned an IFN-γ mean (Table 11, mean of donors) of 480 pg/mL.
